# Results: patent publication US4096257A, “Substituted imidazo [1,2-d]-as-triazines” (American Cyanamid Company, priority 1977, dated 1978)
# Tested on: Mouse Skin Phosphodiesterase (cyclic-AMP phosphodiesterase)
# Assay: mouse skin phosphodiesterase (PDE) inhibition test
# Type: biochemical
# Set-up: key to Mouse Skin Phosphodiesterase: Active: A compound is considered active if it inhibits more than theophylline, that is, to 50% of control at 1 mM concentration of compound, or to 80% of control of 0.05 mM concentration of compound
# Conditions: for Mouse Skin Phosphodiesterase: hairless mouse epidermal PDE, 3H-cyclic AMP substrate, final concentration of test compounds 10 ug./ml
Structure (SMILES),Mouse Skin Phosphodiesterase,"inhibition of skin phosphodiesterase, % of control (0.05 mM concentration of compound)","inhibition of skin phosphodiesterase, % of control (1 mM concentration of compound)"
"CCCc1n[nH]c(=O)c2nccn12 [5-n-propyl-imidazo[1,2-d]-as-triazin-8(7H)-one]",Active,–,–
"O=c1[nH]nc(-c2ccccc2)n2ccnc12 [5-phenyl-imidazo[1,2-d]-as-triazin-8(7H)-one]",Active,–,–
Cn1c(=O)c2[nH]cnc2n(C)c1=O [theophylline],–,80 % of control,50 % of control
